Assay [1] concerns the target T1, Cbl-b (Homo sapiens, UniProt Q13191).
T1 construct: Cbl-b-HiBit KI Jurkat Cells were purchased from Promega; host or cells: Cbl-b-HiBiT knock-in Jurkat cells
In words: Cbl-b Degradation Method B (Nano-Glo HiBiT lytic detection). It is filed as cell-based. As to conditions: Cbl-b-HiBit KI Jurkat Cells, incubated at least 6-24 hours; for DC50: half maximal degradation, read-out: Cbl-b Degredation Method B IC50; for Dmax: maximum degradation observed, read-out: Cbl-b Degredation Method B Dmax (%). In a few lines:
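An 11-point, 3-fold compound dilution was applied for 6-24 hours to Jurkat cells carrying HiBiT-tagged endogenous Cbl-b. Lytic HiBiT luminescence quantified residual protein. Outputs are DC50 and Dmax relative to DMSO control.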

Assay [2] has as its target T1, Cbl-b. The experiment in a line: Cbl-b Degradation Method A (FACS, anti-Cbl-b antibody staining). The format is cell-based. The settings on record: for DC50: half maximal degradation, read-out: Cbl-b Degredation Method A IC50; for Dmax: Jurkat, read-out: Cbl-b Degredation Method A Dmax (%). In short, it runs like this:
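Readout is flow cytometry of fixed, permeabilized cells immunostained for Cbl-b (primary 1:200, AF488 secondary). Cells were Cbl-b-HiBit knock-in Jurkat, exposed to compound ≥20 h at 37 °C; half-maximal degradation concentration (DC50) and maximal degradation (Dmax) calculated relative to control.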

The mark [3] stands for this setting: Cbl-b-HiBit KI Jurkat Cells, incubated at least 20 hours.
Setting [4] is: Cbl-b-HiBit KI Jurkat Cells, incubated at least 20 hours, maximum degradation observed.

T1 sequence (Q13191 whole entry): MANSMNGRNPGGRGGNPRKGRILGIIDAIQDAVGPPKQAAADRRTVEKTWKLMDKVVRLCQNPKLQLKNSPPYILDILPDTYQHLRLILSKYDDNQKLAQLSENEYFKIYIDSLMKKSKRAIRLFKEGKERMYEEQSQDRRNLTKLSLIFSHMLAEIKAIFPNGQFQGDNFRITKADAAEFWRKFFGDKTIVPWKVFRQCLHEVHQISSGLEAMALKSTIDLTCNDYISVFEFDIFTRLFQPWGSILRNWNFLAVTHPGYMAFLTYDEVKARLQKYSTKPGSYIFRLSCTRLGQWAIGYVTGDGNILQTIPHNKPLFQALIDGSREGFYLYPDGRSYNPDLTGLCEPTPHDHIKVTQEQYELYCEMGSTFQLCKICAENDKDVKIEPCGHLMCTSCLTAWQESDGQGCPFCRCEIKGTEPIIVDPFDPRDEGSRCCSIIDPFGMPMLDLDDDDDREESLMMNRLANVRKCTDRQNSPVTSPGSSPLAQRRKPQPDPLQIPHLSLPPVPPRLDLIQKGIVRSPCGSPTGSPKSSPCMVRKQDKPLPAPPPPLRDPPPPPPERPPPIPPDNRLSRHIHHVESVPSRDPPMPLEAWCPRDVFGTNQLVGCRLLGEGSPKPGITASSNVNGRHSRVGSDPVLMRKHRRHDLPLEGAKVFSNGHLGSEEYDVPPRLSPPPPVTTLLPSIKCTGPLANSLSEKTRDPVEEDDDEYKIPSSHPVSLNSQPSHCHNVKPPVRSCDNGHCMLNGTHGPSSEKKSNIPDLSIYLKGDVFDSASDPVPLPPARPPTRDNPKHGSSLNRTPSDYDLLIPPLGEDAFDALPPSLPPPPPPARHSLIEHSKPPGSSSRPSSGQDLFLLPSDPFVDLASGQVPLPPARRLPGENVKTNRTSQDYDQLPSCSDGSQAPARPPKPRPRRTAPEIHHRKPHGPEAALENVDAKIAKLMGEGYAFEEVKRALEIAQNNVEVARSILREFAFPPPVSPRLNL

On to `Cn1cnnc1CC1(c2cccc(N3Cc4c(cc(N5CC(C6CCN(c7ccc8c(c7)C(=O)N(C7CCC(=O)NC7=O)C8=O)CC6)C5)cc4C(F)(F)F)C3=O)c2)COC1` (centres unmarked) [Example 129, 2-(2,6-dioxopiperidin-3-yl)-5-(4-{1-[2-(3-{3-[(4-methyl-4H-1,2,4-triazol-3-yl)methyl]oxetan-3-yl}phenyl)-3-oxo-7-(trifluoromethyl)-2,3-dihydro-1H-isoindol-5-yl]azetidin-3-yl}piperidin-1-yl)-2,3-dihydro-1H-isoindole-1,3-dione], for which the DC50 in assay [1] was more than 500 nM; in assay [2] (setting [3]), 50 to 500 nM.
Taken in the same sequence, the figures for `Cn1cnnc1CC1(c2cccc(N3Cc4c(cc(N5CC6(CCN(Cc7ccc8c(c7)C(=O)N(C7CCC(=O)NC7=O)C8=O)CC6)C5)cc4C(F)(F)F)C3=O)c2)COC1` (centres unmarked) [Example 130, 2-(2,6-dioxopiperidin-3-yl)-5-({2-[2-(3-{3-[(4-methyl-4H-1,2,4-triazol-3-yl)methyl]oxetan-3-yl}phenyl)-3-oxo-7-(trifluoromethyl)-2,3-dihydro-1H-isoindol-5-yl]-2,7-diazaspiro[3.5]nonan-7-yl}methyl)-2,3-dihydro-1H-isoindole-1,3-dione] were more than 500 nM and more than 500 nM.
One may read the Dmax as the greatest extent of degradation seen. Regarding `Cn1cnnc1CC1(c2cccc(N3Cc4c(cc(N5CC6(CCN(CC7CCN(c8ccc9c(n8)CN(C8CCC(=O)NC8=O)C9=O)CC7)CC6)C5)cc4C(F)(F)F)C3=O)c2)COC1` (centres unmarked) [Example 131, 3-{2-[4-({2-[2-(3-{3-[(4-methyl-4H-1,2,4-triazol-3-yl)methyl]oxetan-3-yl}phenyl)-3-oxo-7-(trifluoromethyl)-2,3-dihydro-1H-isoindol-5-yl]-2,7-diazaspiro[3.5]nonan-7-yl}methyl)piperidin-1-yl]-5-oxo-5H,6H,7H-pyrrolo[3,4-b]pyridin-6-yl}piperidine-2,6-dione], the DC50 in assay [1] was less than 5 nM; in assay [2] (setting [3]) it was 5 to 50 nM. For the same compound, the Dmax in assay [1] and in assay [2] (setting [4]) was 35 to 70% each time.
On to `Cn1cnnc1CC1(c2cccc(N3Cc4c(cc(N5CC6(CCN(CC7CN(c8ccc9c(c8)C(=O)N(C8CCC(=O)NC8=O)C9=O)C7)CC6)C5)cc4C(F)(F)F)C3=O)c2)COC1` (centres unmarked) [Example 132, 2-(2,6-dioxopiperidin-3-yl)-5-[3-({2-[2-(3-{3-[(4-methyl-4H-1,2,4-triazol-3-yl)methyl]oxetan-3-yl}phenyl)-3-oxo-7-(trifluoromethyl)-2,3-dihydro-1H-isoindol-5-yl]-2,7-diazaspiro[3.5]nonan-7-yl}methyl)azetidin-1-yl]-2,3-dihydro-1H-isoindole-1,3-dione], for which the figures for the DC50 in assay [1] and in assay [2] (setting [3]) were less than 5 nM and 5 to 50 nM, respectively. The Dmax in assay [1] and in assay [2] (setting [4]) was 35 to 70% throughout.
With `Cn1cnnc1CC1(c2cccc(N3Cc4c(cc(N5CCC(CC6CN(c7ccc8c(c7)C(=O)N(C7CCC(=O)NC7=O)C8=O)C6)CC5)cc4C(F)(F)F)C3=O)c2)COC1` (centres unmarked) [Example 134, 2-(2,6-dioxopiperidin-3-yl)-5-[3-({1-[2-(3-{3-[(4-methyl-4H-1,2,4-triazol-3-yl)methyl]oxetan-3-yl}phenyl)-3-oxo-7-(trifluoromethyl)-2,3-dihydro-1H-isoindol-5-yl]piperidin-4-yl}methyl)azetidin-1-yl]-2,3-dihydro-1H-isoindole-1,3-dione], the DC50 was more than 500 nM in assay [1] and 50 to 500 nM in assay [2] (setting [3]). In addition, in assay [2] (setting [4]), the Dmax is less than 35%.
For `Cn1cnnc1CC1(c2cccc(N3Cc4c(cc(N5CCC6(CC5)CN(CC5CCN(c7ccc8c(c7)C(=O)N(C7CCC(=O)NC7=O)C8=O)CC5)C6)cc4C(F)(F)F)C3=O)c2)COC1` (centres unmarked) [Example 135, 2-(2,6-dioxopiperidin-3-yl)-5-[4-({7-[2-(3-{3-[(4-methyl-4H-1,2,4-triazol-3-yl)methyl]oxetan-3-yl}phenyl)-3-oxo-7-(trifluoromethyl)-2,3-dihydro-1H-isoindol-5-yl]-2,7-diazaspiro[3.5]nonan-2-yl}methyl)piperidin-1-yl]-2,3-dihydro-1H-isoindole-1,3-dione], the values for the DC50 in assay [1] and in assay [2] (setting [3]) were more than 500 nM and 50 to 500 nM, respectively.
`Cn1cnnc1C[C@]1(c2cccc(N3Cc4c(cc(N5CC6(CCN(CC7CCN(c8ccc9c(c8)C(=O)N(C8CCC(=O)NC8=O)C9=O)CC7)CC6)C5)cc4C(F)(F)F)C3=O)c2)C[C@H](C#N)C1` (some centres unmarked) [Example 136, (1r,3r)-3-(3-{6-[7-({1-[2-(2,6-dioxopiperidin-3-yl)-1,3-dioxo-2,3-dihydro-1H-isoindol-5-yl]piperidin-4-yl}methyl)-2,7-diazaspiro[3.5]nonan-2-yl]-1-oxo-4-(trifluoromethyl)-2,3-dihydro-1H-isoindol-2-yl}phenyl)-3-[(4-methyl-4H-1,2,4-triazol-3-yl)methyl]cyclobutane-1-carbonitrile]: the DC50 in assay [1] and in assay [2] (setting [3]) was 5 to 50 nM throughout. In addition, the Dmax in assay [1] and in assay [2] (setting [4]) was 35 to 70% each time.
Regarding `Cn1cnnc1C[C@]1(c2cccc(N3Cc4c(cc(N5CC6(CCN(CC7CCN(c8ccc9c(c8)C(=O)N(C8CCC(=O)NC8=O)C9=O)CC7)CC6)C5)cc4C(F)(F)F)C3=O)c2)C[C@@H](C#N)C1` (some centres unmarked) [Example 137, (1s,3s)-3-(3-{6-[7-({1-[2-(2,6-dioxopiperidin-3-yl)-1,3-dioxo-2,3-dihydro-1H-isoindol-5-yl]piperidin-4-yl}methyl)-2,7-diazaspiro[3.5]nonan-2-yl]-1-oxo-4-(trifluoromethyl)-2,3-dihydro-1H-isoindol-2-yl}phenyl)-3-[(4-methyl-4H-1,2,4-triazol-3-yl)methyl]cyclobutane-1-carbonitrile], the DC50 in assay [1] and in assay [2] (setting [3]) was 5 to 50 nM throughout. The Dmax in assay [1] and in assay [2] (setting [4]) was 35 to 70% each time.
Take `CC1c2cc(N3CCC(CN4CCC5(CC4)CN(c4cc6c(c(C(F)(F)F)c4)CN(c4cccc(C7(Cc8nncn8C)COC7)c4)C6=O)C5)CC3)ccc2C(=O)N1C1CCC(=O)NC1=O` (centres unmarked) [Example 138, 3-{3-methyl-5-[4-({2-[2-(3-{3-[(4-methyl-4H-1,2,4-triazol-3-yl)methyl]oxetan-3-yl}phenyl)-3-oxo-7-(trifluoromethyl)-2,3-dihydro-1H-isoindol-5-yl]-2,7-diazaspiro[3.5]nonan-7-yl}methyl)piperidin-1-yl]-1-oxo-2,3-dihydro-1H-isoindol-2-yl}piperidine-2,6-dione]: the figures for the DC50 in assay [1] and in assay [2] (setting [3]) were less than 5 nM and 5 to 50 nM, respectively. In addition, the Dmax in assay [1] is less than 35%; in assay [2] (setting [4]), 35 to 70%.
Taken in the same sequence, the figures for `Cn1cnnc1CC1(c2cccc(N3Cc4c(cc(N5CCN(C[C@H]6CC[C@H](OC7CCN(c8ccc9c(c8F)CN(C8CCC(=O)NC8=O)C9=O)CC7)CC6)CC5)cc4C(F)(F)F)C3=O)c2)COC1` (some centres unmarked) [Example 139, 3-[4-fluoro-1-oxo-5-(4-{[(1r,4r)-4-({4-[2-(3-{3-[(4-methyl-4H-1,2,4-triazol-3-yl)methyl]oxetan-3-yl}phenyl)-3-oxo-7-(trifluoromethyl)-2,3-dihydro-1H-isoindol-5-yl]piperazin-1-yl}methyl)cyclohexyl]oxy}piperidin-1-yl)-2,3-dihydro-1H-isoindol-2-yl]piperidine-2,6-dione] were 5 to 50 nM, 5 to 50 nM, 35 to 70% and 35 to 70%.
On to `Cn1cnnc1CC1(c2cccc(N3Cc4c(cc(CN5CCC[C@H](CN6CCN(C[C@H]7CC[C@H](OC8CCN(c9ccc%10c(c9F)CN(C9CCC(=O)NC9=O)C%10=O)CC8)CC7)CC6(C)C)C5)cc4C(F)(F)F)C3=O)c2)COC1` (stereo partly drawn) [Example 148, 3-[5-[4-[4-[[3,3-dimethyl-4-[[(3S)-1-[[2-[3-[3-[(4-methyl-1,2,4-triazol-3-yl)methyl]oxetan-3-yl]phenyl]-3-oxo-7-(trifluoromethyl)isoindolin-5-yl]methyl]-3-piperidyl]methyl]piperazin-1-yl]methyl]cyclohexoxy]-1-piperidyl]-4-fluoro-1-oxo-isoindolin-2-yl]piperidine-2,6-dione], for which the DC50 in assay [1] and in assay [2] (setting [3]) was less than 5 nM in each case. Moreover, the Dmax in assay [1] and in assay [2] was more than 70% in each case.
For the compound `Cn1cnnc1[C@]1(c2cccc(N3Cc4c(cc(CN5CCC[C@H](CN6CCN(C[C@H]7CC[C@@H](OC8CCN(c9ccc%10c(c9F)CN(C9CCC(=O)NC9=O)C%10=O)CC8)CC7)CC6)C5)cc4C(F)(F)F)C3=O)c2)C[C@@H](C)C1` (stereo partly drawn) [Example 157, 3-[4-fluoro-1-oxo-5-(4-{[(1r,4r)-4-[(4-{[(3S)-1-[(3-oxo-2-{3-[(1r,3s)-3-methyl-1-(4-methyl-4H-1,2,4-triazol-3-yl)cyclobutyl]phenyl}-7-(trifluoromethyl)-2,3-dihydro-1H-isoindol-5-yl)methyl]piperidin-3-yl]methyl}piperazin-1-yl)methyl]cyclohexyl]oxy}piperidin-1-yl)-2,3-dihydro-1H-isoindol-2-yl]piperidine-2,6-dione], the DC50 in assay [1] and in assay [2] (setting [3]) was less than 5 nM throughout. Moreover, the figures for the Dmax in assay [1] and in assay [2] (setting [4]) were 35 to 70% and more than 70%, respectively.
